As usually defined, the pEC50 is the negative decadic logarithm of the EC50, by convention in mol/L. In general, pKi refers to −log10 of the Ki, conventionally taken in molar units. High values mean a small Ki, low ones a large Ki.

Experimental findings from patent US8563000B2, “Melanocortin receptor ligands modified with hydantoin” (Ipsen Pharma S.A.S., priority 2007, dated 2013) are described below.

Experiment [1] addresses T1, hMC1 (Homo sapiens, UniProt Q01726).
T1 construct: expressed in transfected cells; host or cells: CHO-K1
Kind of experiment: Cyclic AMP bioassay (ECL), CHO-K1 cells expressing hMC1. The experiment is classed as cell-based. To be noted: intracellular cAMP.
Procedure: (§3) Intracellular cyclic AMP (cAMP) levels were determined by an electrochemiluminescence (ECL) assay (Meso Scale Discovery®, Gaithersburg, Md.; referred to hereinafter as “MSD”). […] Transgenic CHO-K1 cells stably expressing hMC receptor subtypes 1, 3, 4 or 5 were dispensed at a density of approximately 7,000 cells/well in 384-well Multi-Array® plates (MSD) containing integrated carbon electrodes and coated with anti-cAMP antibody. Increasing concentrations of the test compounds were added and the cells were incubated for approximately 40 minutes at approximately 37° C. […] At the end of the second incubation period read buffer (Tris-buffered solution containing an ECL co-reactant and Triton X-100 at ph 7.8) was added and the cAMP levels in the cell lysates were immediately determined by ECL detection with a Sector Imager 6000 Reader® (MSD). Data was analyzed using a computer-assisted non-linear regression analysis (XL fit; IDBS) and reported as either an EC50 value or a Kb value.

In experiment [2] the target is T2, hMC3 (Homo sapiens, UniProt P41968).
T2 construct: expressed in transfected cells; host or cells: CHO-K1
T2 sequence (P41968 whole entry): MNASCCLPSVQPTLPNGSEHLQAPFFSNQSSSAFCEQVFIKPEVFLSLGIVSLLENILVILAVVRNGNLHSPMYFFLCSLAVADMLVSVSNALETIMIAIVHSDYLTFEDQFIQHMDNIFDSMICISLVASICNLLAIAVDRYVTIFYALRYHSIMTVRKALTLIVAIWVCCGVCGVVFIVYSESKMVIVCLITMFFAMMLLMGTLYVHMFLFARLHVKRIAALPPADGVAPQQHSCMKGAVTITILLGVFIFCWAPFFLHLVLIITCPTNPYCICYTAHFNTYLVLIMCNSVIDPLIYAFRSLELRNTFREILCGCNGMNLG
Kind of experiment: Cyclic AMP bioassay (ECL), CHO-K1 cells expressing hMC3. The experiment is classed as cell-based. The settings on record: intracellular cAMP.
Procedure: as §3

Experiment [3] deals with T3, hMC4 (Homo sapiens, UniProt P32245).
T3 construct: expressed in transfected cells; host or cells: CHO-K1
T3 sequence (P32245 whole entry): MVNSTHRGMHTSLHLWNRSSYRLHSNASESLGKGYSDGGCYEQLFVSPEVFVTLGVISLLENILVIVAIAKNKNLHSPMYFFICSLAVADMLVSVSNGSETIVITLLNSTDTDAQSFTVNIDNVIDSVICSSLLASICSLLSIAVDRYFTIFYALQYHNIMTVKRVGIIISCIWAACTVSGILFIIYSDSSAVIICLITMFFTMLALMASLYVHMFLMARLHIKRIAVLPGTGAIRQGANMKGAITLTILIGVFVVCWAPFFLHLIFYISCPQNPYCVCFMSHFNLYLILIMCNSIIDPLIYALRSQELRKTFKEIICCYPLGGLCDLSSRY
Kind of experiment: Cyclic AMP bioassay (ECL), CHO-K1 cells expressing hMC4. The settings on record: intracellular cAMP. The format is cell-based.
Procedure: as §3

Experiment [4] addresses T4, hMC5 (Homo sapiens, UniProt P33032).
T4 construct: expressed in transfected cells; host or cells: CHO-K1
The experiment in a line: Cyclic AMP bioassay (ECL), CHO-K1 cells expressing hMC5. The experiment is classed as cell-based. To be noted: intracellular cAMP.
Procedure: as §3

Experiment [5] concerns the target T1, hMC1. The experiment in a line: Radioligand binding assay, [125I]-NDP-α-MSH, CHO-K1 membranes. How it is done: (§1) Cellular membranes used for the in vitro receptor binding assays were obtained from transgenic CHO-K1 cells stably expressing hMC-R receptor subtypes 1, 3, 4 or 5. […] The pellets were re-suspended in the same buffer and centrifuged at 50,000 g for 10 minutes at approximately 4° C. The washed pellets containing the cellular membranes were stored at approximately −80° C.
(§2) Filters were washed three times with 50 mM Tris-HCl at pH 7.4 at a temperature of approximately 0-4° C. and then assayed for radioactivity using a Packard Topcount® scintillation counter. Binding data were analyzed by computer-assisted non-linear regression analysis (XL fit; IDBS).

Experiment [6] addresses T2, hMC3. Described as above. How it is done: as §1, §2
Experiment [7] addresses T3, hMC4. The description is as above. On the procedure:
as §1, §2

Experiment [8] deals with T4, hMC5. The description is as above. How it is done: as §1, §2

pEC50, pKi: −log10 of the molar value.

T4 sequence (P33032 whole entry): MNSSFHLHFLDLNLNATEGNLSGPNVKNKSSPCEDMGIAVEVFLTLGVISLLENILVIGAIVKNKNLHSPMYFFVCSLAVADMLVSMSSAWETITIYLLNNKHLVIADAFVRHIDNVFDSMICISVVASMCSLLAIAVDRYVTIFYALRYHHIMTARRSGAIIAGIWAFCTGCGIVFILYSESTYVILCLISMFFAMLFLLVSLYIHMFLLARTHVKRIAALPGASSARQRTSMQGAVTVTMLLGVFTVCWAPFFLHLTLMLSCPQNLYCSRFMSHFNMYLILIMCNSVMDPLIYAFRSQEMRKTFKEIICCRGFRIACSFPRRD
T1 sequence (Q01726 whole entry): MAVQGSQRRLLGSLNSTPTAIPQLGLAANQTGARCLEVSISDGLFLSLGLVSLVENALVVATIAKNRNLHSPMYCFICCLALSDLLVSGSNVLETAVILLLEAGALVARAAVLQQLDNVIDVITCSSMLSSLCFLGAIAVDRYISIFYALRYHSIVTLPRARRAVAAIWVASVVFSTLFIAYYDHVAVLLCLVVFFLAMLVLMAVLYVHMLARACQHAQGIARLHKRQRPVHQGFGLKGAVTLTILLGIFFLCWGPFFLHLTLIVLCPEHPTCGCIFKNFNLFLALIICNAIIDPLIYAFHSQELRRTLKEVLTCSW

As to `N=C(N)NCCC[C@@H]1NC(=O)[C@@H](Cc2ccccc2)NC(=O)[C@H](Cc2cnc[nH]2)NC(=O)[C@H](CCC(=O)O)NC(=O)[C@@H](NC(=O)[C@@H](CCCNC(=N)N)N2C(=O)CNC2=O)CSSC[C@@H](C(N)=O)NC(=O)[C@H](Cc2c[nH]c3ccccc23)NC1=O` [Hydantoin(C(O)-(Gly-D-Arg))-cyclo(Cys-Glu-His-D-Phe-Arg-Trp-Cys)-NH2], the pEC50 at hMC1 [1] is 7.89; at hMC3 [2], 7.99; on hMC4 [3], 9.90; at hMC5 [4] it was 5.13. Besides, the pKi on hMC1 [5] is 8.37; on hMC3 [6], 7.11; on hMC4 [7], 8.75; at hMC5 [8], 5.34.
With `C[C@@H]1C(=O)N[C@@H](Cc2cnc[nH]2)C(=O)N[C@H](Cc2ccccc2)C(=O)N[C@@H](CCCNC(=N)N)C(=O)N[C@@H](Cc2c[nH]c3ccccc23)C(=O)N[C@H](C(N)=O)CCCNC(=O)C[C@@H]2NC(=O)N1C2=O` [cyclo[Hydantoin(C(O)-(Asp-D-Ala))-His-D-Phe-Arg-Trp-Orn]-NH2], the pEC50 on hMC1 [1] was 7.25; on hMC3 [2] it was 7.05; on hMC4 [3], 8.35; at hMC5 [4], 5.03. For the same compound, the pKi is 7.42 at hMC1 [5], 6.24 at hMC3 [6], 8.11 on hMC4 [7] and 5.19 on hMC5 [8].
